Like-named read-outs stand apart in the source and are kept apart here. Marks after values point to notes of the source that are not given here.
Columns and labels:
[1] = biological target: T1, human 11β-HSD1 (Homo sapiens, UniProt P28845); test: 11β-HSD1 reductase activity (conversion of radiolabelled cortisone to cortisol) in lysates of stably transfected HEK-293 cells; assay type: biochemical; settings: for 11β-HSD1 % of control: 20 μM compound, 100 nM cortisone substrate, HEK-293 lysate
T1 construct: expressed in transfected cells; host or cells: HEK-293 cells, stably transfected; cell lysate
Experimental: (§1) Cells were grown in 10 cm dishes to 80% confluence and incubated for 16 h in steroid-free medium (charcoal-treated fetal calf serum (FCS) from HyClone, Logan, Utah). Cells were rinsed once with phosphate-buffered saline (PBS), detached and centrifuged for 3 min at 150×g. The supernatant was removed and the cell pellet quick-frozen in a dry-ice ethanol bath. At the day of experiment, cell pellets were resuspended in buffer TS2 (100 mM NaCl, 1 mM EGTA, 1 mM EDTA, 1 mM MgCl2, 250 mM sucrose, 20 mM Tris-HCl, pH 7.4), sonicated and activities determined immediately. The rate of conversion of cortisol to cortisone or the reverse reaction was determined in 96-well optical PCR reaction plates (Applied Biosystems, Foster City, Calif.) in a final volume of 22 μl, and the tubes were capped during the reaction to avoid evaporation.
Reactions were initiated simultaneously by adding 10 μl of cell lysate and 12 μl of TS2 buffer containing the appropriate concentration of the inhibitory compound to be tested, NADPH, 30 nCi of [1,2,6,7-^3H]-cortisone and unlabeled cortisone, whereby final concentrations were 400 μM NADPH and 100 nM cortisone. Activities were determined immediately after cell disruption by measuring the conversion of radiolabeled cortisone to cortisol for 10 min.
(§2) Enzyme kinetics were analyzed by non-linear regression using Data Analysis Toolbox (MDL Information Systems Inc.) assuming first-order rate kinetics.
(§3) Assay with 20 μM of the corresponding compound in the reaction mixture, added simultaneously with the substrate:
(§4) Determination of IC50 values, using 7 different inhibitor concentrations at factor 2 intervals: […]

[2] = biological target: T2, human 11β-HSD2 (Homo sapiens, UniProt P80365); test: 11β-HSD2 oxidase activity (conversion of radiolabelled cortisol to cortisone) in lysates of stably transfected HEK-293 cells; assay type: biochemical; settings: for 11β-HSD2 % of control: 20 μM compound, 25 nM cortisol substrate, HEK-293 lysate
T2 construct: expressed in transfected cells; host or cells: HEK-293 cells, stably transfected; cell lysate
T2 sequence (P80365 1-405): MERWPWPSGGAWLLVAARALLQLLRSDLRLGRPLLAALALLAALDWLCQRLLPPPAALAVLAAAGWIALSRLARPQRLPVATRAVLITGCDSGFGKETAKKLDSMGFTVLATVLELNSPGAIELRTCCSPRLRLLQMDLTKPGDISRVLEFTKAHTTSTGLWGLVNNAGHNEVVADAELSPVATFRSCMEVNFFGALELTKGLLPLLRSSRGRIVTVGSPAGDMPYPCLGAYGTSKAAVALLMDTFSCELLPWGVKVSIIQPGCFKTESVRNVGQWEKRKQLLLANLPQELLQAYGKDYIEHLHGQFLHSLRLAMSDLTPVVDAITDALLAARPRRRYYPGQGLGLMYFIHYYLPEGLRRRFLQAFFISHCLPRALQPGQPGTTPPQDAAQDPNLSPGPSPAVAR
Experimental: as §1
Reactions were initiated by simultaneously adding 10 μl of cell lysate and 12 μl of TS2 buffer containing the appropriate concentration of the inhibitory compound to be tested, NAD^+, 30 nCi of [1,2,6,7-^3H]-cortisol and unlabeled cortisol. […] Stock solutions of the inhibitors in methanol or DMSO were diluted in TS2 buffer to yield the appropriate concentrations, whereby the concentration of methanol or DMSO in the reactions were kept below 0.1%. Control reactions with or without 0.1% of the solvent were performed. Incubation was at 37° C. for 10 min with shaking, reactions were terminated by adding 10 μl of stop solution containing 2 mM of unlabeled cortisol and cortisone dissolved in methanol. The conversion of radiolabeled cortisol was determined by separation of cortisol and cortisone using TLC and a solvent system of 9:1 (v/v) chloroform:methanol, followed by scintillation counting.
as §2, §3, §4

[3] = Mittelwert (mean) of determinations 1-3, read-out: IC 50 11β-HSD1, Mittelwert
[4] = Mittelwert (mean) of the determinations, read-out: IC 50 11β-HSD2, Mittelwert
[5] = 7 inhibitor concentrations at factor 2 intervals

T1 sequence (P28845 whole entry): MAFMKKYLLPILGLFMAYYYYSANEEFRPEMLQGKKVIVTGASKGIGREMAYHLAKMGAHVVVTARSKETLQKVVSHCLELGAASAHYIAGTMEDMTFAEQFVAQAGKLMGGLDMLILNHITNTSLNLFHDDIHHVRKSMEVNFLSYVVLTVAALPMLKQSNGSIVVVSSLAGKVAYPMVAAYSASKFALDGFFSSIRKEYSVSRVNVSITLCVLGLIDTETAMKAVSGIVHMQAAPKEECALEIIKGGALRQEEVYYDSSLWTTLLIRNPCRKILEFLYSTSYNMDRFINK

Row | SMILES | 11β-HSD1 % of control [1] | 11β-HSD2 % of control [2] | other results
1 | COc1cc(/C=N/NC(=O)CSc2nc3ccccc3n2Cc2ccc(C)cc2)cc(OC)c1OC(C)=O [BNW28] | 76.73 % of control | 137 % of control | –
2 | COCCN1C(=O)C(O)=C(C(=O)c2ccc(OC)c(C)c2)C1c1ccc(C)cc1 (stereo not shown) [BNW20] | 46.83 % of control | 120.7 % of control | –
3 | CCC(Sc1nnc(-c2ccc(OC)c(OC)c2)c(-c2ccc(OC)c(OC)c2)n1)C(=O)N(CC)CC (stereo not shown) [BNW30] | 48.36 % of control | 140 % of control | –
4 | CCCCOc1ccc(C(=O)C2=C(O)C(=O)N(CCOC)C2c2cccnc2)c(C)c1 (stereo not shown) [BNW3] | 60.25 % of control | 53.57 % of control | –
5 | NC(=O)c1c(NC(=O)C2CC=CCC2C(=O)O)sc2c1CCCCC2 (stereo not shown) [BNW8] | 41.71 % of control | 102.7 % of control | –
6 | COc1ccc(CNC(=O)C2CCC(=O)N2C2CCCC2)cc1OC (stereo not shown) [BNW26] | 94.07 % of control | 136.8 % of control | –
7 | CCOc1ccc(C2c3cc(OCC)c(OCC)cc3CC(=O)N2c2ccc(C(=O)O)cc2)cc1OCC (stereo not shown) [BNW17] | 88.22 % of control | 120.1 % of control | –
8 | CC1(C)[C@@H](OCO)CC[C@]2(C)[C@H]3C(=O)C=C4C5=C[C@@](C)(C(=O)O)CC[C@]5(C)CC[C@@]4(C)[C@]3(C)CC[C@@H]12 [BNW15] | 50.37 % of control | 56.95 % of control | –
9 | COc1cc2c(cc1OC)C(COc1ccc([N+](=O)[O-])cc1)N(C(=O)c1ccc(Cl)c([N+](=O)[O-])c1)CC2 (stereo not shown) [BNW27] | 78.64 % of control | 126.4 % of control | –
10 | CCN(CC)S(=O)(=O)c1ccc(Cl)c(C(=O)Nc2nc3ccc(S(C)(=O)=O)cc3s2)c1 [BNW12] | 85.36 % of control | 132.1 % of control | –
11 | CSc1nc2cc(C)c(C)cc2n1C1OC(CO)C(O)C1O (stereo not shown) [BNW18] | 92.03 % of control | 82.81 % of control | –
12 | Cc1nn(CC(=O)Nc2sc(C)c(C)c2C(N)=O)c(C)c1[N+](=O)[O-] [BNW4] | 82.24 % of control | 95.05 % of control | –
13 | COc1ccc(OC)c(C2C(C(=O)c3ccc(Br)cc3)=C(O)C(=O)N2CCCn2ccnc2)c1 (stereo not shown) [BNW2] | 78.84 % of control | 77.95 % of control | –
14 | COCCC1C(=O)C(O)=C(C(=O)c2ccc(OC)c(C)c2)C1c1ccc(Cl)cc1Cl (stereo not shown) [BNW9] | 30.65 % of control | 77.43 % of control | –
15 | CCN(CC)S(=O)(=O)c1ccc(OC)c(-c2nnc(-c3cc(S(=O)(=O)N(CC)CC)ccc3OC)o2)c1 [BNW29] | 75.29 % of control | 115.4 % of control | –
16 | COc1cccc(/C=N/NC(=O)CSCc2ccccc2C)c1OC [BNW23] | 85.07 % of control | 132.6608 % of control | –
17 | CC(=O)OC1CC[C@]2(C)C3=C(C(=O)C[C@H]2C1(C)C)[C@]1(C)CCC(C(C)CCC(=O)O)[C@@]1(C)CC3=O (stereo partly shown) [BNW16] | 2.708* % of control | 27.37 % of control | IC50 [1, 3]: 144 nM; IC50 [2, 4]: 3950 nM; IC 50 11β-HSD2, determination 1 [2, 5]: out of range
18 | C[C@H]1CC[C@]2(C)[C@H]3C(=O)C=C4[C@@H]5C[C@@](C)(C(=O)O)CC[C@]5(C)CC[C@@]4(C)[C@]3(C)CC[C@H]2C1(C)C [BNW25] | 2.884* % of control | 13.93* % of control | IC50 [1, 3]: 172 nM; IC50 ([1]; determination 1, 7 inhibitor concentrations at factor 2 intervals, read-out: IC 50 11β-HSD1, determination 1): 147 nM; IC50 ([1]; determination 2, 7 inhibitor concentrations at factor 2 intervals, read-out: IC 50 11β-HSD1, determination 2): 206 nM; IC50 ([1]; determination 3, 7 inhibitor concentrations at factor 2 intervals, read-out: IC 50 11β-HSD1, determination 3): 161 nM; IC50 [2, 4]: 59.7 nM; IC 50 11β-HSD2, determination 1 [2, 5]: out of range; IC50 ([2]; determination 2, 7 inhibitor concentrations at factor 2 intervals, read-out: IC 50 11β-HSD2, determination 2): 54.6 nM; IC50 ([2]; determination 3, 7 inhibitor concentrations at factor 2 intervals, read-out: IC 50 11β-HSD2, determination 3): 64.9 nM
19 | CCN(CC(O)COc1cc(C)c(Cl)c(C)c1)S(=O)(=O)O (stereo not shown) [BNW1] | 102.1 % of control | 96.77 % of control | –
20 | Cc1cccc(C)c1C1C(SCC(=O)Nc2c(Cl)cccc2Cl)=NN=C1c1cccc([S+]([O-])N(C)C)c1 (stereo not shown) [BNW11] | 70.1 % of control | 120.9 % of control | –
21 | CCOc1ccc(C2C(C(=O)c3ccc(Cl)cc3)=C(O)C(=O)N2CCCn2ccnc2)cc1OCC (stereo not shown) [BNW22] | 41.32 % of control | 104.3 % of control | –
22 | COc1ccc(CCNC(=O)C23CCC(C)(C(=O)C2=O)C3(C)C)cc1OC (stereo not shown) [BNW7] | 9.593* % of control | 139.5 % of control | IC50 [1, 3]: 2030 nM; IC 50 11β-HSD2, determination 1 [2, 5]: did not inhibit; IC 50 11β-HSD2, determination 2 ([2]; determination 2, 7 inhibitor concentrations at factor 2 intervals): did not inhibit; IC 50 11β-HSD2, determination 3 ([2]; determination 3, 7 inhibitor concentrations at factor 2 intervals): did not inhibit
23 | Cc1n[nH]c(O)c1C(c1ccc(-c2ccc(Cl)c(C(=O)O)c2)o1)c1c(O)n[nH]c1C [BNW5] | 69.75 % of control | 97.47 % of control | –
24 | COc1ccc(C(=O)CNc2cccc(Cl)c2Cl)c(C(F)(F)F)c1 [BNW6] | 79.64 % of control | 145 % of control | –
25 | COc1ccc(C(=O)C2=C(O)C(=O)N(CCCn3ccnc3)C2c2ccccc2)cc1Cl (stereo not shown) [BNW21] | 48.94 % of control | 121.6 % of control | –
26 | COC(=O)[C@@]1(C)CC[C@]2(C)CC[C@]3(C)C(=CC(=O)[C@@H]4[C@@]5(C)CC[C@H](Oc6ccccc6C(=O)O)C(C)(C)[C@@H]5CC[C@]43C)[C@@H]2C1 [BNW13] | 3.879* % of control | 14.37* % of control | IC50 [1, 3]: 691 nM; IC50 [2, 4]: 281 nM; IC 50 11β-HSD2, determination 1 [2, 5]: out of range

— US20100087413A1, “Prevention and treatment of inflammation-induced and/or immune-mediated bone loss” (priority 2003, published 2010)
